# In ChEMBL document CHEMBL3044986, “Synthesis of 1-(4-aminosulfonylphenyl)-3,5-diarylpyrazoline derivatives as potent antiinflammatory and antimicrobial agents” (2012):
# Calls of active or inactive are those of the source. The calls are words filed in the database; no cut-off is given here.
# Columns and labels:
# [1] = system: Rattus norvegicus; assay: Anti-inflammatory activity in Rattus norvegicus Wistar albino (rat) assessed as inhibition of carrageenan-induced paw edema at 4 mg/kg, ip administered 30 min prior to carrageenan-challenge measured at 4 hr by plethysmometric analysis relative to control; type: functional; details: route intraperitoneal
# [2] = system: Rattus norvegicus; assay: Anti-inflammatory activity in Rattus norvegicus Wistar albino (rat) assessed as inhibition of carrageenan-induced paw edema at 4 mg/kg, ip administered 30 min prior to carrageenan-challenge measured at 3 hr by plethysmometric analysis relative to control; type: functional; details: route intraperitoneal
# [3] = system: Rattus norvegicus; assay: Anti-inflammatory activity in Rattus norvegicus Wistar albino (rat) assessed as inhibition of carrageenan-induced paw edema at 4 mg/kg, ip administered 30 min prior to carrageenan-challenge measured at 2 hr by plethysmometric analysis relative to control; type: functional; details: route intraperitoneal
# [4] = system: Rattus norvegicus; assay: Anti-inflammatory activity in Rattus norvegicus Wistar albino (rat) assessed as inhibition of carrageenan-induced paw edema at 4 mg/kg, ip administered 30 min prior to carrageenan-challenge measured at 1 hr by plethysmometric analysis relative to control; type: functional; details: route intraperitoneal
# [5] = system: Bacillus subtilis; assay: Antibacterial activity against Bacillus subtilis MTCC 121 after 24 hr by modified agar well diffusion assay; type: functional; details: MTCC 121, 24 h
# [6] = system: Staphylococcus aureus; assay: Antibacterial activity against Staphylococcus aureus MTCC 96 after 24 hr by modified agar well diffusion assay; type: functional; details: MTCC 96, 24 h
# [7] = system: Bacillus subtilis; assay: Antibacterial activity against Bacillus subtilis MTCC 121 at 4 mg/ml after 24 hr by agar well diffusion assay; type: functional; details: MTCC 121, 24 h, read-out: DIZ
# [8] = system: Staphylococcus aureus; assay: Antibacterial activity against Staphylococcus aureus MTCC 96 at 4 mg/ml after 24 hr by agar well diffusion assay; type: functional; details: MTCC 96, 24 h, read-out: DIZ
# [9] = system: Rattus norvegicus; assay: Anti-inflammatory activity in Rattus norvegicus Wistar albino (rat) assessed as inhibition of carrageenan-induced paw edema at 50 mg/kg, po administered 30 min prior to carrageenan-challenge measured at 4 hr by plethysmometric analysis relative to control; type: functional
# [10] = system: Rattus norvegicus; assay: Anti-inflammatory activity in Rattus norvegicus Wistar albino (rat) assessed as inhibition of carrageenan-induced paw edema at 50 mg/kg, po administered 30 min prior to carrageenan-challenge measured at 3 hr by plethysmometric analysis relative to control; type: functional
# [11] = system: Candida albicans; assay: Antifungal activity against Candida albicans MTCC 227 after 24 hr by modified agar well diffusion assay; type: functional
# [12] = system: Candida albicans; assay: Antifungal activity against Candida albicans MTCC 227 at 4 mg/ml after 24 hr by agar well diffusion assay; type: functional; details: for zone of inhibition at 4000 µg/mL: MTCC 227, 24 h, read-out: DIZ
# [13] = system: Saccharomyces cerevisiae; assay: Antifungal activity against Saccharomyces cerevisiae MTCC 170 after 24 hr by modified agar well diffusion assay; type: functional
# [14] = system: Saccharomyces cerevisiae; assay: Antifungal activity against Saccharomyces cerevisiae MTCC 170 at 4 mg/ml after 24 hr by agar well diffusion assay; type: functional; details: for zone of inhibition at 4000 µg/mL: MTCC 170, 24 h, read-out: DIZ
# [15] = system: Pseudomonas aeruginosa; assay: Antibacterial activity against Pseudomonas aeruginosa MTCC 741 at 4 mg/ml after 24 hr by agar well diffusion assay; type: functional, organism-based
# [16] = system: Escherichia coli; assay: Antibacterial activity against Escherichia coli MTCC 1652 at 4 mg/ml after 24 hr by agar well diffusion assay; type: functional, organism-based
# [17] = system: Rattus norvegicus; assay: Anti-inflammatory activity in Rattus norvegicus Wistar albino (rat) assessed as inhibition of carrageenan-induced paw edema at 50 mg/kg, po administered 30 min prior to carrageenan-challenge measured at 2 hr by plethysmometric analysis relative to control; type: functional
# [18] = system: Rattus norvegicus; assay: Anti-inflammatory activity in Rattus norvegicus Wistar albino (rat) assessed as inhibition of carrageenan-induced paw edema at 50 mg/kg, po administered 30 min prior to carrageenan-challenge measured at 1 hr by plethysmometric analysis relative to control; type: functional
Structure (SMILES),MIC [5] [µg/mL],MIC [6] [µg/mL],"MIC ([11]; MTCC 227, 24 h) [µg/mL]","MIC ([13]; MTCC 170, 24 h) [µg/mL]",MIC [11],MIC [13],zone of inhibition at 4000 µg/mL [7] [mm],zone of inhibition at 4000 µg/mL [8] [mm],inhibition in vivo at 50 mg/kg [9] [%],inhibition in vivo at 50 mg/kg [10] [%],zone of inhibition at 4000 µg/mL [12] [mm],zone of inhibition at 4000 µg/mL [14] [mm],Activity [15],Activity [16],inhibition in vivo at 50 mg/kg [17] [%],inhibition in vivo at 50 mg/kg [18] [%],diameter of the inhibition zone (DIZ) [12],diameter of the inhibition zone (DIZ) [14],other results
COc1ccc2c(c1)c(CC(=O)O)c(C)n2C(=O)c1ccc(Cl)cc1 [INDOMETHACIN],–,–,–,–,–,–,–,–,–,–,–,–,–,–,–,–,–,–,inhibition in vivo at 4 mg/kg [1]: 74.7%; inhibition in vivo at 4 mg/kg [2]: 77.2%; inhibition in vivo at 4 mg/kg [3]: 81.9%; inhibition in vivo at 4 mg/kg [4]: 69.6%
COc1ccc(OC)c(C2CC(c3ccc(Cl)cc3)=NN2c2ccc(S(N)(=O)=O)cc2)c1 (centres undefined),64,128,128,32,–,–,18.6,15.3,45.4,58.9,14.3,17.6,inactive,inactive,48.8,14.5,–,–,–
COc1cc(OC)cc(C2CC(c3ccc(OC)cc3O)=NN2c2ccc(S(N)(=O)=O)cc2)c1 (centres undefined),256,256,–,–,inactive,inactive,14.3,13.3,50,62.8,–,–,inactive,inactive,57.5,31.9,inactive,inactive,–
COc1ccc(C2=NN(c3ccc(S(N)(=O)=O)cc3)C(c3ccc(OC)cc3OC)C2)c(O)c1 (centres undefined),64,128,–,–,inactive,inactive,18.6,15.6,37.1,40.6,–,–,inactive,inactive,16.5,33.3,inactive,inactive,–
COc1cc(OC)cc(C2CC(c3ccc(Cl)cc3)=NN2c2ccc(S(N)(=O)=O)cc2)c1 (centres undefined),> 256,> 256,> 256,64,–,–,13.6,12,46.4,46.1,12.6,16.3,inactive,inactive,26.8,11.6,–,–,–
COc1ccc(C2=NN(c3ccc(S(N)(=O)=O)cc3)C(c3cccc(OC)c3OC)C2)c(O)c1 (centres undefined),32,64,128,64,–,–,20.6,18.6,43.8,45,14.3,15.6,inactive,inactive,25.2,47.8,–,–,–
COc1ccc(C2CC(c3ccc(Cl)cc3)=NN2c2ccc(S(N)(=O)=O)cc2)cc1OC (centres undefined),128,256,–,–,inactive,inactive,17.3,13.6,49.5,68.3,–,–,inactive,inactive,64.6,57.9,inactive,inactive,–
O=C(O)c1cn(C2CC2)c2cc(N3CCNCC3)c(F)cc2c1=O [CIPROFLOXACIN],5,5,–,–,–,–,24,26.6,–,–,–,–,–,–,–,–,–,–,–
C[C@@H]1[C@H](O)[C@@H](C)/C=C/C=C/C=C/C=C/C=C/C=C/C=C/[C@H](O[C@@H]2O[C@H](C)[C@@H](O)[C@H](N)[C@@H]2O)C[C@@H]2O[C@](O)(C[C@@H](O)C[C@@H](O)[C@H](O)CC[C@@H](O)C[C@@H](O)CC(=O)O[C@H]1C)C[C@H](O)[C@H]2C(=O)O [AMPHOTERICIN B],–,–,100,100,–,–,–,–,–,–,14.3,13.6,–,–,–,–,–,–,–

# The next lines start with results.
MIC [5] [µg/mL],MIC [6] [µg/mL],"MIC ([11]; MTCC 227, 24 h) [µg/mL]","MIC ([13]; MTCC 170, 24 h) [µg/mL]",MIC [11],MIC [13],Structure (SMILES),zone of inhibition at 4000 µg/mL [7] [mm],zone of inhibition at 4000 µg/mL [8] [mm],inhibition in vivo at 50 mg/kg [9] [%],inhibition in vivo at 50 mg/kg [10] [%],zone of inhibition at 4000 µg/mL [12] [mm],zone of inhibition at 4000 µg/mL [14] [mm],Activity [15],Activity [16],inhibition in vivo at 50 mg/kg [17] [%],inhibition in vivo at 50 mg/kg [18] [%],diameter of the inhibition zone (DIZ) [12],diameter of the inhibition zone (DIZ) [14],other results
64,128,128,64,–,–,COc1cccc(C2CC(c3ccc(F)cc3)=NN2c2ccc(S(N)(=O)=O)cc2)c1OC (centres undefined),18.3,17.6,51.5,53.8,13.6,15.6,inactive,inactive,40.1,59.4,–,–,–
128,128,–,–,inactive,inactive,COc1ccc(C2CC(c3ccc(F)cc3)=NN2c2ccc(S(N)(=O)=O)cc2)c(OC)c1 (centres undefined),16.3,15.3,47.9,47.7,–,–,inactive,inactive,35.4,63.7,inactive,inactive,–
128,256,–,–,inactive,inactive,COc1ccc(OC)c(C2CC(c3ccc(F)cc3)=NN2c2ccc(S(N)(=O)=O)cc2)c1 (centres undefined),15,13.6,41.7,48.3,–,–,inactive,inactive,30.7,50.7,inactive,inactive,–
128,256,64,32,–,–,COc1cccc(C2CC(c3ccc(Cl)cc3)=NN2c2ccc(S(N)(=O)=O)cc2)c1OC (centres undefined),15,13.6,27.8,46.1,15.3,17.3,inactive,inactive,35.4,18.8,–,–,–
64,64,128,64,–,–,COc1ccc(C2CC(c3ccc(Cl)cc3)=NN2c2ccc(S(N)(=O)=O)cc2)c(OC)c1 (centres undefined),19.3,18.3,32.9,57.2,13.6,16,inactive,inactive,48.8,43.5,–,–,–
128,256,–,–,inactive,inactive,COc1ccc(C2CC(c3ccc(F)cc3)=NN2c2ccc(S(N)(=O)=O)cc2)cc1OC (centres undefined),15.3,14,53.1,62.8,–,–,inactive,inactive,53.5,62.3,inactive,inactive,–
256,> 256,–,–,inactive,inactive,COc1cc(OC)cc(C2CC(c3ccc(F)cc3)=NN2c2ccc(S(N)(=O)=O)cc2)c1 (centres undefined),13.6,12.6,50,51.1,–,–,inactive,inactive,33.1,49.3,inactive,inactive,–
